Experimental findings from patent US12264170B2, “Antimicrobial organosilanes” (TOPIKOS SCIENTIFIC, INC., priority 2019, dated 2025) are described below.

Holding throughout (format): cell-based
Experiment [1] deals with Acinetobacter baumannii Eurofins 1674627. Description: MIC microdilution assay (Example 32). Conditions: Acinetobacter baumannii; A. baumannii Eurofins 1674627; 35±2° C. 18 to 20 hours; two values given; read-out: MIC. The protocol: (§1) Strain IDs starting with “ATCC” were acquired from the American Type Culture Collection (Manassas, VA), strain IDs starting with “Eurofins” were acquired from Eurofins (Herndon, VA), while strain IDs starting with “CDC” were acquired from the Centers for Disease Control and Prevention (Atlanta, GA). All strains were maintained as −80° C. frozen glycerol stocks. S. aureus and P. aeruginosa were grown overnight on Tryptic Soy Agar (TSA) plates at 35±2° C., ambient atmosphere, while S. pyogenes was grown overnight on TSA+5% defibrinated sheep blood at 35±2° C., 5% CO2. C. jejuni was grown for 48 hours on TSA+5% defibrinated sheep blood at 35±2° C., in a microaerophilic environment generated by CampyGen sachet. All fungal species (i.e. C. albicans and C. auris) were grown overnight on Sabouraud Dextrose Agar (SDA) plates at 35±2° C., ambient atmosphere.
(§2) Test article Compound 1 (batch #7G30A9.203) was stored at 4° C. The antibiotic Tobramycin and antifungal Amphotericin B were used as quality control (QC) compounds for the MIC assay. Stock solutions of 3.2 mg/mL Tobramycin (Sigma-Aldrich, cat #T1783-500MG) and 3.2 mg/mL Amphotericin B (CP Lab Chemicals, cat #TOK-A007-1G) were prepared in sterile ultrapure water.
(§3) For bacteria strains, a few colonies of each strain were collected with a sterile swab and used to make a McFarland 0.5 standard solution (approximately 1×10^8 CFU/mL) in sterile PBS. The McFarland was then diluted 1:180 in Cation Adjusted Muller-Hinton Broth (CAMHB) for S. aureus and P. aeruginosa. S. pyogenes McFarland was diluted 1:180 in CAMHB+5% defibrinated sheep blood, while C. jejuni McFarland was diluted 1:180 in CAMHB+5% laked horse blood. 90 μL of this inoculum was combined with 10 μL of the 10× test article in a 96-well plate for a final concentration of 1×.
(§4) Except for C. jejuni, all bacterial-strain MIC 96-well plates were incubated at 35±2° C. for 18 to 20 hours, ambient atmosphere. C. jejuni was incubated at 35±2° C. for 48 hours, under microaerophilic condition. All Candida MIC 96-well plates were incubated at 35±2° C. for 24 to 48 hours, ambient atmosphere, until growth in control wells were observed. After incubation, the 96-well plates were examined visually and on a spectrophotometer at absorbance OD650. MIC is defined as the lowest concentration of a compound in which no visible growth is observed.
In general terms: Dilution methods test growth across graded concentrations, often in twofold steps.

Experiment [2] deals with Streptococcus pyogenes Eurofins 2065755. Kind of experiment: MIC microdilution assay (Example 32). Conditions: Streptococcus pyogenes; S. pyogenes Eurofins 2065755; CAMHB+5% defibrinated sheep blood; 35±2° C. 18 to 20 hours; two values given; read-out: MIC. The protocol:
as §1, §2, §3, §4

The subject of experiment [3] is Campylobacter jejuni CDC 0413. Description: MIC microdilution assay (Example 32). Particulars: Campylobacter jejuni, CDC0413; C. jejuni CDC 0413; CAMHB+5% laked horse blood; 35±2° C. 48 hours, microaerophilic; two values given; read-out: MIC. The protocol: as §1, §2, §3, §4
The subject of experiment [4] is Pseudomonas aeruginosa CDC 0248. Description: MIC microdilution assay (Example 32). Particulars: Pseudomonas aeruginosa, CDC0248; P. aeruginosa CDC 0248; CAMHB; 35±2° C. 18 to 20 hours; two values given; read-out: MIC. The protocol: as §1, §2, §3, §4
The subject of experiment [5] is Pseudomonas aeruginosa Eurofins 1674623. Kind of experiment: MIC microdilution assay (Example 32). Particulars: Pseudomonas aeruginosa; P. aeruginosa Eurofins 1674623; CAMHB; 35±2° C. 18 to 20 hours; two values given; read-out: MIC. The protocol:
as §1, §2, §3, §4

For experiment [6], the system named is Pseudomonas aeruginosa ATCC 27853. Description: MIC microdilution assay (Example 32). Conditions: Pseudomonas aeruginosa, ATCC27853; P. aeruginosa ATCC 27853 (quality control); CAMHB; 35±2° C. 18 to 20 hours; two values given; read-out: MIC. The protocol:
as §1, §2, §3, §4

The test system of experiment [7] is Cladosporium herbarum ATCC MYA-4682. Description: MIC microdilution assay. Conditions: Cladosporium herbarum; C. herbarum ATCC MYA-4682; RPMI media; 25±2° C. 3 to 5 days; two values given; read-out: MIC. The protocol: Strain numbers starting with “ATCC” were acquired from the American Type Culture Collection (Manassas, VA), while strain numbers starting with “CDC” were acquired from the Centers for Disease Control and Prevention (Atlanta, GA). All strains were maintained as −80° C. frozen glycerol stocks. S. aureus and P. aeruginosa were grown overnight on Tryptic Soy Agar (TSA) plates at 35±2° C., ambient atmosphere, while S. pyogenes was grown overnight on TSA+5% defibrinated sheep blood at 35±2° C., 5% CO2. All fungal species (i.e. C. albicans, C. auris and C. herbarum) were grown on Sabouraud Dextrose Agar (SDA) plates. C. herbarum was grown at 25±2° C. for 5 to 7 days, while all other fungal strains were grown at 35±2° C. overnight.
Test articles Compound 2 (batch #2G13A0.368) and Compound 23 (batch #2G17A0.372) were received and stored at 4° C. The antibiotic Tobramycin and antifungal Amphotericin B were used as quality control (QC) compounds for the MIC assay. […]
All bacterial-strain MIC 96-well plates were incubated at 35±2° C. for 18 to 20 hours, while all Candida MIC 96-well plates were incubated at 35±2° C. for 24 to 48 hours. […] After incubation, the 96-well plates were examined visually and on a spectrophotometer at absorbance OD650. […]

Each structure is given as a SMILES string. In brackets after ≈: the same amount, converted by molar mass.

As a reminder, the MIC is the lowest concentration found to suppress growth. Take `NC[C@H]1O[C@H](O[C@H]2[C@H](O)[C@@H](O[C@H]3O[C@H](CO)[C@@H](O)[C@H](N)[C@H]3O)[C@H](N)C[C@@H]2N)[C@H](N)C[C@@H]1O` [Tobramycin]: the MIC in experiment [1] is 1 µg/mL (≈ 2.14 µM); in experiment [2], 16 µg/mL (≈ 34.2 µM); in experiment [3], more than 32 µg/mL; in experiment [4], more than 32 µg/mL; in experiment [5] it was more than 32 µg/mL; in experiment [6] it was 0.25 µg/mL (≈ 0.535 µM). In addition, in experiment [7], the MIC was more than 32 µg/mL.
